Experimental findings from patent publication US10315992B2, “Tetracyline compounds” (Tetraphase Pharmaceuticals, Inc., priority 2012, dated 2019) are described below.

The test system of this assay is Burkholderia cenocepacia BC240 (cystic fibrosis isolate, MDR). Nature of the assay: MIC assay, BC240. It counts as cell-based. The following applies: for MIC BC 240: B. cenocepacia MDR; for MIC: Burkholderia cenocepacia.

≈ marks a conversion by molar mass, not a printed value. Like-named read-outs stand apart in the source and are kept apart here.

Consider `CN(C)[C@@H]1C(O)=C(C(N)=O)C(=O)[C@@]2(O)C(O)=C3C(=O)c4c(O)cccc4C[C@H]3C[C@@H]12` [Sancycline, sancycline], for which the lowest concentration to inhibit growth (MIC) was 4 µg/mL (≈ 9.65 µM). Moreover, the “MIC BC 240” value (Table 5) is 4 µg/mL (≈ 9.65 µM). The “MIC BC 240” value (Table 7) is 4 µg/mL (≈ 9.65 µM). In addition, the MIC (read-out: MIC BC 240) is 4 µg/mL (≈ 9.65 µM).
The compound `CN(C)c1cc(NC(=O)CNC(C)(C)C)c(O)c2c1C[C@H]1C[C@H]3[C@H](N(C)C)C(O)=C(C(N)=O)C(=O)[C@@]3(O)C(O)=C1C2=O` [Tigecycline, tigecycline] displayed an MIC of 16 µg/mL (≈ 27.3 µM). For the setting “Table 5”, the “MIC BC 240” value worked out at 16 µg/mL (≈ 27.3 µM). In addition, the “MIC BC 240” value (Table 7) turned out to be 16 µg/mL (≈ 27.3 µM). The MIC (read-out: MIC BC 240) worked out at 16 µg/mL (≈ 27.3 µM).
